Patent publication US20220265629A1, “TREATMENT OF SYSTOLIC DYSFUNCTION AND HEART FAILURE WITH REDUCED EJECTION FRACTION WITH THE COMPOUND (R)-4-(1-((3-(DIFLUOROMETHYL)-1-METHYL-1H-PYRAZOL-4-YL)SULFONYL)-1-FLUOROETHYL)-N-(ISOXAZOL-3-YL)PIPERIDINE-1-CARBOXAMIDE” (MyoKardia, Inc., priority 2019, published 2022)
Like-named read-outs stand apart in the source and are kept apart here.

Assay: Single ascending oral dose study in healthy volunteers: plasma pharmacokinetics
Assay type: in vivo, human
Details: for Plasma concentration, Mean / concentration at 6 h: 6 Hours Postdose; for concentration at 6 h / concentration at 12 h / concentration at 24 h / concentration at 48 h / concentration at 72 h / AUC(0-t) / AUC(0-inf) / Cmax / half-life / MRT / Tmax / Vd/F: human, plasma, oral; for concentration at 12 h: 12 Hours Postdose; for concentration at 24 h: 24 Hours Postdose; for concentration at 48 h: 48 Hours Postdose; for concentration at 72 h: 72 Hours Postdose
Text: This example describes the first-in-human study of Compound I. Based on its mechanism of action, Compound I may offer a targeted therapy for patients with DCM caused by genetic or nongenetic mechanisms. The study was a randomized, double-blind, placebo-controlled, sequential group, single-ascending (oral) close study in healthy subjects aged 18-55 years. Eight dosing cohorts, each comprising eight healthy subjects, were enrolled. Within each cohort, subjects were randomized 6:2 to Compound I:placebo.
Subjects were resident at the clinical site for up to 5 days and 4 nights, from Day −1 (the day before dosing) to Day 4, and received a single dose of Compound I or placebo on Day 1. ECG telemetry was initiated 1 hour preclose and continued through 48 hours postclose (Day 3). Any subject with a preclose resting HR≥80 beats per minute was considered ineligible and not treated. […] Subjects returned for a safety follow-up visit 7 days (±1 day) after dosing.
All randomized study subjects received either Compound I or matching placebo as a single oral dose after a fasting period of at least 6 hours. Compound I drug substance is a crystalline, free-base, synthetic molecule with a molecular weight of 435.4 g/mol.
Compound I was provided as a powder for oral suspension. Placebo was provided as calcium carbonate powder. Both treatments were closed orally as a suspension. The suspension was made using Ora-Plus® suspending vehicle (Perrigo) and a cherry syrup flavoring vehicle (Humco), mixed 50% to 50%. The suspension was followed by approximately 100 mL water. The suspension was made up within 14 days from the time in which it was closed which was consistent with the stability data on the suspension. The suspension was made up so the volume administered to the subjects who received Compound I was the same at 20 mL.
Each subject received a close according to the cohort in which they were enrolled. Cohorts were enrolled sequentially, with each cohort receiving an escalated dose of Compound I. The closes administered were 3 mg, 10 mg, 25 mg, 50 mg, 100 mg, 175 mg, 350 mg, and 525 mg, respectively.
The concentrations of Compound I in human plasma and urine were quantitated by high performance liquid chromatography with tandem mass spectrometric detection (LC MS/MS) (Biological sample analysis study report Alturas AD17-726). Plasma samples were extracted by protein precipitation with acetonitrile containing internal standard MYK-5654. The calibration curves were linear over concentration range of 0.500 to 1000 ng/mL with a lower limit of quantification (LLOQ) of 0.500 ng/mL.
The PK Population included all subjects who received Compound I. Blood samples were collected for PK assessments. The actual timing of the samples may have been modified and/or up to an additional 2 samples may have been requested by the SRC after review of the data from previous cohorts. It was important that PK sampling occurred as closely as possible to the scheduled time (±10%). Both blood and urine samples were used for PK assessments.
In addition, for subjects who received placebo, a single plasma sample near the predicted tmax of Compound I was evaluated to confirm the lack of circulating Compound I. Plasma concentration data for Compound I was summarized using descriptive statistics, including mean, standard deviation (SD), median, minimum, and maximum values, and percent coefficient of variation. Other PK parameters included (but were not limited to) Cmax, tmax, AUC, t1/2, and MRT. Additionally, the apparent terminal-phase terminal half-life was calculated. The close proportionality of AUC and Cmax was explored.

[1] = 3 mg, 3 mg, read-out: Plasma concentration, Geometric Mean
[2] = 3 mg, 3 mg, read-out: Plasma concentration, Mean
[3] = 3 mg, 3 mg, read-out: Plasma concentration, Median
[4] = 10 mg, 10 mg, read-out: Plasma concentration, Geometric Mean
[5] = 10 mg, 10 mg, read-out: Plasma concentration, Mean
[6] = 10 mg, 10 mg, read-out: Plasma concentration, Median

Compound: Cn1cc(S(=O)(=O)[C@@](C)(F)C2CCN(C(=O)Nc3ccon3)CC2)c(C(F)F)n1 [Compound I, (R)-4-(1-((3-(difluoromethyl)-1-methyl-1H-pyrazol-4-yl)sulfonyl)-1-fluoroethyl)-N-(isoxazol-3-yl)piperidine-1-carboxamide]
- CL/F, Geometric Mean (3 mg): 4.15 L/h
- CL/F, Mean (3 mg): 4.26 L/h
- CL/F, Median (3 mg): 4.22 L/h
- Extrapolation, Geometric Mean (3 mg): 2.71%
- Extrapolation, Mean (3 mg): 2.78%
- Extrapolation, Median (3 mg): 2.82%
- CL/F, Geometric Mean (10 mg): 2.99 L/h
- CL/F, Mean (10 mg): 3.06 L/h
- CL/F, Median (10 mg): 2.88 L/h
- Extrapolation, Geometric Mean (10 mg): 1.59%
- Extrapolation, Mean (10 mg): 1.90%
- Extrapolation, Median (10 mg): 2.24%
- CL/F, Geometric Mean (25 mg): 3.55 L/h
- CL/F, Mean (25 mg): 3.69 L/h
- CL/F, Median (25 mg): 3.32 L/h
- Extrapolation, Geometric Mean (25 mg): 1.45%
- Extrapolation, Mean (25 mg): 1.72%
- Extrapolation, Median (25 mg): 1.92%
- CL/F, Geometric Mean (50 mg): 4.47 L/h
- CL/F, Mean (50 mg): 4.53 L/h
- CL/F, Median (50 mg): 4.46 L/h
- Extrapolation, Geometric Mean (50 mg): 0.46%
- Extrapolation, Mean (50 mg): 0.91%
- Extrapolation, Median (50 mg): 0.46%
- CL/F, Geometric Mean (100 mg): 4.69 L/h
- CL/F, Mean (100 mg): 4.76 L/h
- CL/F, Median (100 mg): 5.33 L/h
- Extrapolation, Geometric Mean (100 mg): 0.36%
- Extrapolation, Mean (100 mg): 5.48%
- Extrapolation, Median (100 mg): 0.14%
- CL/F, Geometric Mean (175 mg): 4.57 L/h
- CL/F, Mean (175 mg): 4.66 L/h
- CL/F, Median (175 mg): 4.45 L/h
- Extrapolation, Geometric Mean (175 mg): 0.14%
- Extrapolation, Mean (175 mg): 0.17%
- Extrapolation, Median (175 mg): 0.16%
- CL/F, Geometric Mean (350 mg): 4.75 L/h
- CL/F, Mean (350 mg): 4.95 L/h
- CL/F, Median (350 mg): 4.75 L/h
- Extrapolation, Geometric Mean (350 mg): 0.37%
- Extrapolation, Mean (350 mg): 0.60%
- Extrapolation, Median (350 mg): 0.43%
- AUC0-∞, Mean (350 mg + 525 mg): 74358.88 ng·h/mL
- CL/F, Geometric Mean (350 mg + 525 mg): 6.04 L/h
- CL/F, Mean (350 mg + 525 mg): 6.51 L/h
- CL/F, Median (350 mg + 525 mg): 6.10 L/h
- Extrapolation, Geometric Mean (350 mg + 525 mg): 0.29%
- Extrapolation, Mean (350 mg + 525 mg): 0.59%
- Extrapolation, Median (350 mg + 525 mg): 0.32%
- Tmax, Mean (350 mg + 525 mg): 4.96 h
- CL/F, Geometric Mean (525 mg): 7.66 L/h
- CL/F, Mean (525 mg): 8.07 L/h
- CL/F, Median (525 mg): 7.64 L/h
- Extrapolation, Geometric Mean (525 mg): 0.22%
- Extrapolation, Mean (525 mg): 0.59%
- Extrapolation, Median (525 mg): 0.23%
- Plasma concentration, Mean (350 mg): 2660.000 ng/mL
- Plasma concentration, Mean (350 mg + 525 mg): 2437.500 ng/mL
- Plasma concentration, Mean (525 mg): 2215.000 ng/mL
- dose proportionality, power model slope (all dose groups, 95% CI 0.8358-0.9417): 0.8888
- concentration at 6 h [1]: 35.2 ng/mL
- concentration at 6 h [2]: 35.8 ng/mL
- concentration at 6 h [3]: 33.5 ng/mL
- concentration at 12 h [1]: 21.5 ng/mL
- concentration at 12 h [2]: 21.9 ng/mL
- concentration at 12 h [3]: 21.7 ng/mL
- concentration at 24 h [1]: 11 ng/mL
- concentration at 24 h [2]: 11.3 ng/mL
- concentration at 24 h [3]: 10.8 ng/mL
- concentration at 48 h [1]: 2.29 ng/mL
- concentration at 48 h [2]: 2.7 ng/mL
- concentration at 48 h [3]: 2.34 ng/mL
- concentration at 72 h [2]: 0.586 ng/mL
- concentration at 72 h [3]: 0.449 ng/mL
- AUC(0-t) (3 mg, read-out: AUC0-24, Geometric Mean): 514 ng·h/mL
- AUC(0-t) (3 mg, read-out: AUC0-24, Mean): 521 ng·h/mL
- AUC(0-t) (3 mg, read-out: AUC0-24, Median): 504 ng·h/mL
- AUC(0-t) (3 mg, read-out: AUC0-48, Geometric Mean): 676 ng·h/mL
- AUC(0-t) (3 mg, read-out: AUC0-48, Mean): 689 ng·h/mL
- AUC(0-t) (3 mg, read-out: AUC0-48, Median): 678 ng·h/mL
- AUC(0-t) (3 mg, read-out: AUC0-last, Geometric Mean): 702 ng·h/mL
- AUC(0-t) (3 mg, read-out: AUC0-last, Mean): 721 ng·h/mL
- AUC(0-t) (3 mg, read-out: AUC0-last, Median): 713 ng·h/mL
- AUC(0-inf) (3 mg, read-out: AUC0-∞, Geometric Mean): 722 ng·h/mL
- AUC(0-inf) (3 mg, read-out: AUC0-∞, Mean): 741 ng·h/mL
- AUC(0-inf) (3 mg, read-out: AUC0-∞, Median): 730 ng·h/mL
- Cmax (3 mg, read-out: Cmax, Geometric Mean): 37.6 ng/mL
- Cmax (3 mg, read-out: Cmax, Mean): 38.2 ng/mL
- Cmax (3 mg, read-out: Cmax, Median): 36.5 ng/mL
- half-life (3 mg, read-out: Half-Life Lambda Z, Geometric Mean (converted)): 11.1 h
- half-life (3 mg, read-out: Half-Life Lambda Z, Mean (converted)): 11.3 h
- half-life (3 mg, read-out: Half-Life Lambda Z, Median (converted)): 11.2 h
- MRT (3 mg, read-out: Mean Residence Time, Geometric Mean): 17.3 h
- MRT (3 mg, read-out: Mean Residence Time, Mean): 17.5 h
- MRT (3 mg, read-out: Mean Residence Time, Median): 16.8 h
- Tmax (3 mg, read-out: Tmax, Geometric Mean): 4.33 h
- Tmax (3 mg, read-out: Tmax, Mean): 4.46 h
- Tmax (3 mg, read-out: Tmax, Median): 4 h
- Vd/F (3 mg, read-out: Vz/F, Geometric Mean): 66.5 L
- Vd/F (3 mg, read-out: Vz/F, Mean): 66.9 L
- Vd/F (3 mg, read-out: Vz/F, Median): 65.4 L
- concentration at 6 h [4]: 129 ng/mL
- concentration at 6 h [5]: 131 ng/mL
- concentration at 6 h [6]: 137 ng/mL
- concentration at 12 h [4]: 92.8 ng/mL
- concentration at 12 h [5]: 94.2 ng/mL
- concentration at 12 h [6]: 97.8 ng/mL
- concentration at 24 h [4]: 56.3 ng/mL
- concentration at 24 h [5]: 57.8 ng/mL
- concentration at 24 h [6]: 61.5 ng/mL
- concentration at 48 h [4]: 15.8 ng/mL
- concentration at 48 h [5]: 16.4 ng/mL
